The subject of the test is WI-38 VA13. Kind of test: Effective concentration required to cause cytotoxicity to tumorigenic cell line WI-38 VA-13 subline 2RA. The test is classed as functional, cell-based. The conditions noted are these: Homo sapiens.

≈ marks a conversion by molar mass, not a printed value.

Our source for the EC50 values is ChEMBL document CHEMBL1147459, “Thienopyridine and benzofuran derivatives as potent anti-tumor agents possessing different structure-activity relationships” (Bioorg Med Chem Lett, 2004).

By EC50 is commonly meant the concentration giving half of the maximal effect. Read a low EC50 as a more potent agent. `CNc1c(C(=O)c2ccccc2)sc2nc(-c3cccs3)ccc12` registered an EC50 of 0.42 µg/mL (≈ 1.2 µM).
For `COc1ccc(OC)c(C(=O)c2sc3nc(-c4cccs4)ccc3c2N)c1` the value was 0.079 µg/mL (≈ 0.199 µM); for `COc1ccccc1C(=O)c1sc2nc(-c3cccs3)ccc2c1N`, 0.059 µg/mL (≈ 0.161 µM); for `CCOC(=O)c1sc2nc(-c3cccs3)ccc2c1N`, more than 4 µg/mL.
Take `Nc1c(C(=O)c2ccc(Br)cc2)sc2nc(-c3cccs3)ccc12`: the EC50 was 2.8 µg/mL (≈ 6.74 µM).
In the case of `Nc1c(C(=O)c2ccc(F)cc2)sc2nc(-c3cccs3)ccc12`, the 50% effective concentration (EC50) turned out to be 1.8 µg/mL (≈ 5.08 µM).
In turn, `Nc1c(C(=O)c2ccc(F)cc2F)sc2nc(-c3cccs3)ccc12` yielded a 50% effective concentration (EC50) of 2.3 µg/mL (≈ 6.18 µM).
Regarding `COc1cccc(C(=O)c2sc3nc(-c4cccs4)ccc3c2N)c1`, the response was half-maximal at 0.03 µg/mL (≈ 0.0819 µM) (EC50).
For `Nc1c(C(=O)c2cccc([N+](=O)[O-])c2)sc2nc(-c3cccs3)ccc12` the value was 0.15 µg/mL (≈ 0.393 µM); for `CCOC(=O)c1oc2cc(-c3ccccc3)cc(OC)c2c1C`, more than 4 µg/mL; for `CN(C)c1c(C(=O)c2ccccc2)sc2nc(-c3cccs3)ccc12`, more than 4 µg/mL.
For `CC(=O)c1sc2nc(-c3cccs3)ccc2c1N` the value was 2.7 µg/mL (≈ 9.84 µM).
The value for `CC(C)(C)C(=O)c1sc2nc(-c3cccs3)ccc2c1N` was 0.57 µg/mL (≈ 1.8 µM).
`Nc1c(C(=O)c2ccccc2)sc2nc(-c3cccs3)ccc12` returned an EC50 of 0.09 µg/mL (≈ 0.268 µM).
For `Nc1c(C(=O)c2cccc(Br)c2)sc2nc(-c3cccs3)ccc12` the value was 0.5 µg/mL (≈ 1.2 µM); for `COc1ccc(C(=O)c2sc3nc(-c4cccs4)ccc3c2N)c(OC)c1`, 0.52 µg/mL (≈ 1.31 µM).
The value for `CCC(=O)c1sc2nc(-c3cccs3)ccc2c1N` was 0.89 µg/mL (≈ 3.09 µM); that for `Nc1c(C(=O)c2ccc(F)c(F)c2)sc2nc(-c3cccs3)ccc12` was more than 4 µg/mL; that for `COc1ccc(C(=O)c2sc3nc(-c4cccs4)ccc3c2N)cc1` was 0.77 µg/mL (≈ 2.1 µM).
The value for `Nc1c(C(=O)c2cccc(F)c2)sc2nc(-c3cccs3)ccc12` was 0.025 µg/mL (≈ 0.0705 µM).
